# Tests used:
# Type in all cases: cell-based
# [1] = tested on: UACC-62; assay: NCI 60 cell line screen (SRB), Melanoma
# [2] = tested on: ACHN; assay: NCI 60 cell line screen (SRB), Renal Cancer
# [3] = tested on: SN12C; assay: NCI 60 cell line screen (SRB), Renal Cancer
# [4] = tested on: NCI-H460; assay: NCI 60 cell line screen (SRB), Non-Small Cell Lung Cancer
# [5] = tested on: EKVX; assay: as above
# [6] = tested on: HT29; assay: NCI 60 cell line screen (SRB), Colon Cancer
# [7] = tested on: murine keratinocyte cell line PE; assay: Growth inhibition of PE cells, MTT assay; conditions: 100 nanomolar; compared with calcitriol; FIG. 5
# Experimental: To determine the inhibitory effect of the compositions of the present invention on cell proliferation, screening assays were performed on a murine keratinocyte cell line PE. Cell line PE was chosen for its particular sensitivity to the induction of omithine decarboxylase (ODC) activity by the extensively characterized tumor promoter TPA. Cell line PE was derived from a papilloma-induced in female SENCAR mice by a standard skin initiation/promotion protocol, see Yuspa, S. H., et al., Carcinogenesis, 7:949-958 (1986). PE cell culture medium consisted of Eagle's minimal essential medium without calcium chloride (Whittaker Bioproducts, Walkersville, Mass.) supplemented with 8% chelexed fetal calf serum and 1% antibiotic-antimycotic (Gibco BRL) and the addition of CaCI2 to 0.05 mM Ca^++
# MTT [3-(4,5-dimethylthiazol-2-yl)-2,5-diphenyltetraxolium bromide] was purchased from Sigma Chemical Co. (St. Louis, Mo.), and TPA was supplied by L.C. Services (Woburn, Mass.). L-[^14C]omithine ([…]) was from Amersham/Searle Corp. (Arlington Heights, Ill.). Chemical solvents used in all assays of biological activity were of the highest grade commercially available.
# Growth curves, shown in FIG. 5, for PE cells treated with calcitriol and the C-10 carbon-substituted dimers VII-f, VII-g and VII-h generated by assay for the reduction of the tetrazolium-based compound MTT, see Charmichael, et al., Cancer Res., 47:936-942 (1987). A mitochondrial dehydrogenase reduces MTT to a blue formazan product with an absorbance maximum of 505 nm in DMSO; the number of viable cells can thus be determined spectrophotometrically. PE cells were seeded at a density of 5,000 cells/well in 50 IL of medium into 96-well microtiter plates. Twelve hours later, the medium was removed, and cells were treated with 100 μL of fresh medium into which the appropriate amount of calcitriol or analog dissolved in dimethyl sulfoxide (DMSO) had been added, with the concentration of DMSO held constant at 0.1 %. […] At 24-hour intervals following the initial treatment of the cells with compounds, 0.1 mg (50 μL of a 2 mg/mL solution) of MTT was added to each well. After 4 hours, the MTT was removed and DMSO added to dissolve the blue formazan dye. Using a microtiter plate reader, the A505 was then determined and cell number calculated from blank-subtracted absorbance values.
# [8] = tested on: SK-MEL-5; assay: NCI 60 cell line screen (SRB), Melanoma
# [9] = tested on: HOP-62; assay: NCI 60 cell line screen (SRB), Non-Small Cell Lung Cancer
# [10] = tested on: TK-10; assay: NCI 60 cell line screen (SRB), Renal Cancer
# [11] = tested on: OVCAR-8; assay: NCI 60 cell line screen (SRB), Ovarian Cancer
# [12] = tested on: MALME-3M; assay: NCI 60 cell line screen (SRB), Melanoma
# [13] = tested on: PC-3; assay: NCI 60 cell line screen (SRB), Prostate Cancer
# [14] = tested on: SW-620; assay: NCI 60 cell line screen (SRB), Colon Cancer
# [15] = tested on: SR; assay: NCI 60 cell line screen (SRB), Leukemia; conditions: Table IV (LC50, PG=−50)
# [16] = tested on: NCI-H226; assay: NCI 60 cell line screen (SRB), Non-Small Cell Lung Cancer
# [17] = tested on: HS 578T; assay: NCI 60 cell line screen (SRB), Breast Cancer
structure (smiles),measurement,setting,value
CC1=C(C=Cc2cccc(C=CC3=C(C)C4CCC(C)C5CCC6(C)OOC45C(O3)O6)c2)OC2OC3(C)CCC4C(C)CCC1C24OO3 (centres unmarked) [VII-h],Log10TGI,[1]; PG=0,>−4.00 log10M
same,Log10GI50,[1]; PG=+50,−6.91 log10M
same,Log10GI50,"[1]; Table IV (LC50, PG=−50)",>−4.00 log10M
same,Log10TGI,[2]; PG=0,>−4.00 log10M
same,Log10 GI50 or LC50 (see conditions),[2]; PG=+50,−6.86 log10M
same,Log10 GI50 or LC50 (see conditions),"[2]; Table IV (LC50, PG=−50)",>−4.00 log10M
same,Log10TGI,"[3]; SN12C, PG=0",>−4.00 log10M
same,Log10GI50,"[3]; SNI2C, PG=+50",−7.31 log10M
same,Log10GI50,"[3]; Table IV (LC50, PG=−50), SN12C",−4.00 log10M
same,Log10TGI,[4]; PG=0,>−4.00 log10M
same,Log10 GI50 or Log10 LC50,[4]; PG=+50,−5.59 log10M
same,Log10TGI,[5]; PG=0,>−4.00 log10M
same,Log10GI50,[5]; PG=+50,−7.42 log10M
same,Log10GI50,"[5]; Table IV (LC50, PG=−50)",>−4.00 log10M
same,Log10TGI,[6]; PG=0,>−4.00 log10M
same,Log10GI50,[6]; PG=+50,−7.37 log10M
same,Log10GI50,"[6]; Table IV (LC50, PG=−50)",>−4.00 log10M
same,antiproliferative activity in words,[7],at least as antiproliferative as calcitriol
same,Log10TGI,[8]; PG=0,−6.21 log10M
same,Log10 GI50 or LC50,[8]; PG=+50,−7.36 log10M
same,Log10TGI,[9]; PG=0,>−4.00 log10M
same,Log10GI50,[9]; PG=+50,−7.08 log10M
same,Log10GI50,"[9]; Table IV (LC50, PG=−50)",>−4.00 log10M
same,Log10TGI,[10]; PG=0,>−4.00 log10M
same,Log10GI50,[10]; PG=+50,−7.22 log10M
same,Log10GI50,"[10]; Table IV (LC50, PG=−50)",>−4.00 log10M
same,Log10TGI,[11]; PG=0,>−4.00 log10M
same,Log10GI50,[11]; PG=+50,−7.33 log10M
same,Log10GI50,"[11]; Table IV (LC50, PG=−50)",>−4.00 log10M
same,Log10TGI,[12]; PG=0,−4.17 log10M
same,Log10GI50,[12]; PG=+50,−6.94 log10M
same,Log10GI50,"[12]; Table IV (LC50, PG=−50)",>−4.00 log10M
same,Log10TGI,[13]; PG=0,>−4.00 log10M
same,Log10 GI50 (PG=+50) or LC50 (PG=−50),[13]; PG=+50,−7.70 log10M
same,Log10 GI50 (PG=+50) or LC50 (PG=−50),"[13]; Table IV (LC50, PG=−50)",>−4.00 log10M
same,Log10TGI,[14]; PG=0,>−4.00 log10M
same,Log10GI50,[14]; PG=+50,−7.59 log10M
same,Log10GI50,[15],>−4.00 log10M
same,Log10TGI,[16]; PG=0,>−4.00 log10M
same,Log10GI50,[16]; PG=+50,>−4.00 log10M
same,Log10GI50,"[16]; Table IV (LC50, PG=−50)",>−4.00 log10M
same,Log10TGI,[17]; PG=0,>−4.00 log10M
same,Log10GI50,[17]; PG=+50,−7.41 log10M
same,Log10GI50,"[17]; Table IV (LC50, PG=−50)",>−4.00 log10M

# Reference: patent US20020055528A1, “Artemisinin analogs having antimalarial, antiproliferative, and antitumor activities and chemoselective methods of making the same” (priority 1999, published 2002)
